Like-named read-outs stand apart in the source and are kept apart here.
How the values were obtained:
[1] = tested on: bloodstream trypomastigotes (BT) forms of T. cruzi (Y strain); assay: Trypanocidal analysis in vitro on bloodstream trypomastigotes; assay type: cell-based, Trypanosoma cruzi; conditions: for SI (selective index: ratio between LC50/EC50 values): LC50 on mammalian cardiac cells (24 h) / EC50 on BT forms; for EC50: mean ± SD, 24 h of incubation at 37°C, Y strain, read-out: EC50 (drug concentration which reduces the number of the parasites by 50%); for times more active than benznidazole: comparison of EC50 values on bloodstream trypomastigotes
Protocol: Y strain of T. cruzi was used throughout the experiments. Bloodstream forms were harvested by heart puncture from T. cruzi-infected Swiss mice at the peak of parasitemia.
For the in vitro analysis on trypomastigotes, the parasites were incubated at 310 K in the presence of increasing doses (0–200 μM) of each compound diluted in Dulbecco's modified Eagle's medium which was supplemented with 5% fetal bovine serum and 1 mM L-glutamine (DMES). After 24 h, death rates were determined by light microscopy through the direct quantification of live parasites using Neubauer chamber, and EC50 values (drug concentration which reduces 50% of the number of live parasites) were then calculated as reported.

[2] = target: T1, human serum albumin (HSA) (Homo sapiens, UniProt P02768); assay: Quenching of HSA intrinsic fluorescence (Stern-Volmer); assay type: binding; conditions: HSA 4 × 10^−6 mol L^−1, 296 K, pH 7.4; standard error 0.2 × 10^4 L mol^−1; corrected for inner filter effect
T1 construct: purchased Sigma-Aldrich
Protocol: (§1) Steady state fluorescence measurements were performed on a Varian-Agilent Cary Eclipse or a PTI QM1 fluorescence system. UV-Vis absorption spectra were obtained with an Agilent diode array spectrophotometer model 8452A. Fluorescence lifetimes were measured using IBH-Horiba-Jobin Yvon TCSPC system. NanoLEDs with 1.0 ns nominal pulse duration and 1 MHz repetition rate were used as light sources for exciting the intrinsic HSA or BSA fluorescence (283 nm) and NOR fluorescence (330 nm).
(§2) Quenching measurements of albumin fluorescence were taken in 3 mL of BSA or HSA (4 × 10^−6 mol L^−1) in phosphate buffer 10 mM at pH 7.4. The albumin solutions were titrated by successive additions of the complex stock solutions. The fluorescence emission spectra of BSA and HSA were measured using an excitation wavelength of 290 nm. Experiments were performed at ambient temperature (296 K) and pH 7.4.
(§3) In this section, the quenching of BSA and HSA fluorescence by Cu(II) ions, Cu(II)-bipy, Cu(II)-phen, and complexes 1 and 2 was monitored. All the UV absorption and emission spectra were registered. The fluorescence decay curves with excitation at 283 nm and emission at 340 nm were obtained in the absence of the quenchers, at an intermediary and at the final quencher concentration. The raw data are available in Supplementary Material available online at http://dx.doi.org/10.1155/2016/5027404. The fluorescence intensity was attenuated by absorption of the incident and emitted light. […] The fluorescence spectra were corrected using the following expression:(2) Fcorr=Fobs10^Aex+Aeml/2, where F corr and F obs are the corrected and observed fluorescence intensity, A ex and A em are the absorbance at the excitation and emission wavelengths, respectively, and ℓ is the optical path in cm.
(§4) Quenching of a fluorophore by a drug can occur by a static or dynamic process. Static or dynamic quenching at a single site can be described by the Stern-Volmer equation [36]:(3) F0/F=1+KSVQ, where F 0 and F are the fluorescence intensities of albumins in the absence and presence of complexes, respectively. [Q] is the quencher concentration, and K SV is the Stern-Volmer quenching constant, which is related to the bimolecular collisional process in dynamic quenching but is the association constant in static quenching. Stern-Volmer constants were obtained for the linear region of the plots (Table 3).

[3] = target: T2, bovine serum albumin (BSA) (Bos taurus, UniProt P02769); assay: Quenching of BSA intrinsic fluorescence (Stern-Volmer); assay type: binding; conditions: BSA 4 × 10^−6 mol L^−1, 296 K, pH 7.4; standard error 0.2 × 10^4 L mol^−1; corrected for inner filter effect
T2 construct: purchased Sigma-Aldrich
Protocol: as §1, §2, §3, §4

[4] = tested on: bloodstream trypomastigotes (BT) forms of T. cruzi (Y strain); parameters: method as in Martins et al., 2012 [14]; conditions: ref Martins et al., 2012 [14], cited from earlier work; for SI (selective index: ratio between LC50/EC50 values): LC50 on mammalian cardiac cells / EC50 on BT forms; for EC50: mean ± SD, 24 h of incubation at 37°C, Y strain, read-out: EC50 (drug concentration which reduces the number of the parasites by 50%)

T1 sequence (P02768 25-609): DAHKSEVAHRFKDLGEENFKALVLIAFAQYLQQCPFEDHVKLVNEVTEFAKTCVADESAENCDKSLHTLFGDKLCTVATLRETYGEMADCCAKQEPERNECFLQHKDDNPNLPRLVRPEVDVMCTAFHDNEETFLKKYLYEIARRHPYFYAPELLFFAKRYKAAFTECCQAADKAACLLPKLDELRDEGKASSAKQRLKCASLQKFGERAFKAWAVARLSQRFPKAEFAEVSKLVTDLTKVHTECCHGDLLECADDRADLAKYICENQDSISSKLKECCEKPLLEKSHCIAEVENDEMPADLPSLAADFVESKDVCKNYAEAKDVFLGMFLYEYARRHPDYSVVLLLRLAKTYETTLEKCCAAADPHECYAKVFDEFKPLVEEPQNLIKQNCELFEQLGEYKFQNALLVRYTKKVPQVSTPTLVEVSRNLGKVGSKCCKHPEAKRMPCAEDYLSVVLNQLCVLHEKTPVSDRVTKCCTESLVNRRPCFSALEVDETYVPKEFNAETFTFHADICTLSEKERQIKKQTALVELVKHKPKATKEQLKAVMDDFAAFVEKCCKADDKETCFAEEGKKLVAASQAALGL
T2 sequence (P02769 25-607): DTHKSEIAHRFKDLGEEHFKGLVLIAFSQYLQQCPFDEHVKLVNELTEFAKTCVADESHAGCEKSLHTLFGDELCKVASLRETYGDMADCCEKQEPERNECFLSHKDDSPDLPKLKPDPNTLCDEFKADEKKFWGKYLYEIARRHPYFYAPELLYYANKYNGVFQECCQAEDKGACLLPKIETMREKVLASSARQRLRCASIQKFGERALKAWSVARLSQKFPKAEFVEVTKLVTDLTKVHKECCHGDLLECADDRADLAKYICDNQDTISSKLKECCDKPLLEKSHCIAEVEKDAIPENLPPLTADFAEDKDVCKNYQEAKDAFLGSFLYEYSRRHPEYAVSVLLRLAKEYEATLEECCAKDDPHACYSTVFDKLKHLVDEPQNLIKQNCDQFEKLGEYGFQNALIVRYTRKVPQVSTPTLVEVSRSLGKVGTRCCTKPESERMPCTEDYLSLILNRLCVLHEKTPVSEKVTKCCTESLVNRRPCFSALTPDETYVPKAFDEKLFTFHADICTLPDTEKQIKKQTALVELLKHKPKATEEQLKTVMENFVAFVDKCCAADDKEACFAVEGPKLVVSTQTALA

Compound	SI (selective index: ratio between LC50/EC50 values) [1]	EC50 ([1]; Trypanosoma cruzi) [µM]	K SV (Stern-Volmer constant) [2] [L/mol]	K SV (Stern-Volmer constant) [3] [L/mol]	SI (selective index: ratio between LC50/EC50 values) [4]	EC50 [4] [µM]	EC50 [1] [µM]	times more active than benznidazole [1]
O=C(Cn1ccnc1[N+](=O)[O-])NCc1ccccc1 [Benznidazole]	77	13 ± 2						
[Cu+2] [Cu(II)]			29000	35000				
[Cl][Cu][Cl] [CuCl2]					6	83 ± 3		
CCn1cc(C(=O)O)c(=O)c2cc(F)c(N3CCNCC3)cc21 [Norfloxacin, 1-ethyl-6-fluoro-1,4-dihydro-4-oxo-7-(1-piperazinyl)-quinoline-3-carboxylic acid]	>1.25	126 ± 30						
[Cl][Cu][Cl].c1ccc(-c2ccccn2)nc1 [[CuCl2(bipy)]]			50000	31000	4.5	14 ± 7		
[CuCl2(NOR)]	0.8						78 ± 12	
[CuCl2(phen)(NOR)]·3H2O [complex 2]	2.68		49000	37000			4.4 ± 1.4	2-3 times
[CuCl2(phen)]			51000	35000	<4	7 ± 5		2-3 times
[CuCl(bipy)(NOR)]Cl·2H2O [complex 1]	4		58000	30000			16 ± 4	
